# From US20090311349A1, “METHOD OF QUANTIFICATION OF MULTIPLE BIOACTIVES FROM BOTANICAL COMPOSITIONS” (priority 2008, published 2009)
# Marks after values point to notes of the source that are not given here.
# Legend:
# uterine horn = test: Uterine horn mass, control vs DES vs MF101; assay type: in vivo
# Description: (§1) In a similar experiment, the effect of MF101 on breast cancer cells was compared to that of diethylstilbestrol (DES). […] FIGS. 3G and 3H show the effect of control, DES and MF101 on a breast cancer graft mass (FIG. 3G) and a uterine horn mass (FIG. 3H).
# breast cancer graft = test: Breast cancer graft growth, control vs DES vs MF101; assay type: in vivo
# Description: as §1
# U2OS-ERα cells [1] = test: Affymetrix U95Av2 microarray, U2OS-ERα cells; assay type: cell-based, human
# Description: (§2) To identify genes regulated by ERα and/or ERβ, the U2OS-ERα and U2OS-ERβ cell lines were treated with doxycycline for 18 h in the absence or presence of 10 nM E2. Total RNA was used to prepare cRNA for hybridization with the human U95Av2 Affymetrix microarrays, which contain 12,600 known genes. Six sets of comparative expression data of untreated vs. each treated group were used to determine the genes regulated in ERα or ERβ cells.
# (§3) Microarray data obtained from human Affymetrix U95Av2 gene chips from untreated vs. ligand-treated samples were analyzed using the Affymetrix Microarray Suite Version 5.0. Candidate genes displaying a statistically significant (p<0.05) increase or decrease signal changes relative to controls in at least three experiments were further selected by a ±0.8 signal log ratio mean cut-off. […] Fold-changes in the U2OS-ERα and U2OS-ERβ samples (in parentheses) were calculated relative to the untreated samples.
# MCF-7 cells = test: [3H] thymidine incorporation in adenovirus-infected MCF-7 cells; assay type: cell-based, human; details: presence of E2; 10 days
# Description: To investigate the role of ERα in breast cancer, the effects of E2 on cell proliferation in MCF-7 cells that express only ERα were studied. […] (An, supra, 2001). […] To investigate the role of ERβ on the proliferation of breast cancer cells, an adenovirus (Ad) was used to deliver ERβ into a high percentage of cells. MCF-7 cells were infected for 24 h with Ad-ERβ or Ad-LacZ to control for potential non-specific effects of the virus. The infected cells were grown for 10 days in the absence or presence of E2, after which DNA synthesis was measured by [3H] thymidine incorporation in vitro. […] E2 augmented the inhibition of cell proliferation to 70% in the Ad-ERβ-infected cells. Similar results were observed using 100 multiplicity of infection (MOI) of Ad-ERβ. The observation that the inhibition of cell proliferation by ERβ was predominantly ligand-independent may result from residual E2 in stripped serum or retained in cells infected with ERβ, or unliganded properties of […].
# [2] = tested on: U2OS-ERα and U2OS-ERβ cell lines; test: Affymetrix U95Av2 microarray, both U2OS-ERα and U2OS-ERβ cell lines; assay type: cell-based, human; details: for genes Activated, α + β / genes Repressed, α + β: 10 nM E2 or 1 μM tamoxifen
# Description: as §2, §3
# U2OS-ERβ cells [3] = test: Affymetrix U95Av2 microarray, U2OS-ERβ cells; assay type: cell-based, human
# Description: as §2, §3
# U2OS-ERα cells [4] = details: 1 μM raloxifene, 18 h, relative to untreated
# U2OS-ERα cells [5] = test: Affymetrix U95Av2 microarray, U2OS-ERα cells; assay type: cell-based, human; details: 1 μM raloxifene, 18 h
# [6] = tested on: U2OS-ERα and U2OS-ERβ cell lines; test: Affymetrix U95Av2 microarray, both U2OS-ERα and U2OS-ERβ cell lines; assay type: cell-based, human
# U2OS-ERβ cells [7] = test: Affymetrix U95Av2 microarray, U2OS-ERβ cells; assay type: cell-based, human; details: 1 μM raloxifene, 18 h
# U2OS-ERβ cells [8] = details: 1 μM raloxifene, 18 h, relative to untreated
# human ERβ = target: T1, human ERβ (Homo sapiens, UniProt Q92731); test: ERE-tk-Luc reporter activation in U2OS cells transfected with ERβ; assay type: cell-based; details: activation by MF101 (MF101 and estradiol)
# T1 construct: expressed in transfected cells; host or cells: U2OS osteosarcoma cells
# [9] = 10 nM E2, 1 μM raloxifene or 1 μM tamoxifen, 18 h
# [10] = 1 μM raloxifene or 1 μM tamoxifen, 18 h
# T1 sequence (Q92731 whole entry): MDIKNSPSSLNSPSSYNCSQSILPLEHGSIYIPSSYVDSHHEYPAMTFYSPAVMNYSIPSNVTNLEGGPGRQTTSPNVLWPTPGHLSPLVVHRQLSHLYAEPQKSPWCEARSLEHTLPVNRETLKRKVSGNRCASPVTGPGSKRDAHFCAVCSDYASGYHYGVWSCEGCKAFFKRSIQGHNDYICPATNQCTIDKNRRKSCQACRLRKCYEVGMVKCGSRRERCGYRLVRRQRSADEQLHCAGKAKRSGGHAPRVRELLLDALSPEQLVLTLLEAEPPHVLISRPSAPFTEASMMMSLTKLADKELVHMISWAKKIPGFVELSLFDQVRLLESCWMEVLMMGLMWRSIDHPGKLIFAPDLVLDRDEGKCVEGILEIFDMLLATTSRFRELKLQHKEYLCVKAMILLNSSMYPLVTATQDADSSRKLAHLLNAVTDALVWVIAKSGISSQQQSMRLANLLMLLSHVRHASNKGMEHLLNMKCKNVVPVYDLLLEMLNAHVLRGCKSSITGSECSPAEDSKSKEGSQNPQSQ
compound,measurement,setting,value
"CC/C(=C(/CC)c1ccc(O)cc1)c1ccc(O)cc1 [DES, diethylstilbestrol]",uterine horn growth (mass),uterine horn,substantial increase
same,growth of xenograft (breast cancer graft mass),breast cancer graft; vs control,substantial increase
same,proliferation of breast cancer cells (FIGS. 3D-3F),breast cancer graft; vs control-treated,proliferation-stimulating effect
C[C@]12CC[C@@H]3c4ccc(O)cc4CC[C@H]3[C@@H]1CC[C@@H]2O [estradiol],genes regulated only in the U2OS-ERα cells,U2OS-ERα cells [1]; 10 nM E2,65 genes
same,"genes Activated, α only",U2OS-ERα cells [1]; [9],33 genes
same,"genes Repressed, α only",U2OS-ERα cells [1]; [9],32 genes
same,inhibition of cell proliferation in Ad-ERβ-infected MCF-7 cells,MCF-7 cells,70%
same,share of genes regulated by both ERα and ERβ,[2]; 10 nM E2,17%
same,genes regulated in U2OSα and U2OSβ cell lines,"[2]; 10 nM E2, 1 μM raloxifene or 1 μM tamoxifen, 18 h, p<0.05, listed as E2",228 genes
same,genes regulated by both ERα and ERβ,"[2]; 10 nM E2, of the 228",38 genes
same,"genes Activated, α + β",[2]; 18 h,34 genes
same,"genes Repressed, α + β",[2]; 18 h,4 genes
same,genes regulated only in the U2OS-ERβ cells,U2OS-ERβ cells [3]; 10 nM E2,125 genes
same,"genes Activated, β only",U2OS-ERβ cells [3]; [9],87 genes
same,"genes Repressed, β only",U2OS-ERβ cells [3]; [9],38 genes
O=C(c1ccc(OCCN2CCCCC2)cc1)c1c(-c2ccc(O)cc2)sc2cc(O)ccc12 [raloxifene],"genes Activated, α only",U2OS-ERα cells [1]; [9],10 genes
same,"genes Activated, α only, relative percentage",U2OS-ERα cells [1]; [9],(5.3%)
same,"genes Repressed, α only",U2OS-ERα cells [1]; [9],10 genes
same,"genes Repressed, α only, relative percentage",U2OS-ERα cells [1]; [9],(5.3%)
same,"Fold-change by real-time PCR, NKG2C (α)",U2OS-ERα cells [4],7.54 fold
same,"Mean signal log ratio ± S.E., NKG2C (α)",U2OS-ERα cells [5],2.40 ± 0.82
same,"genes Activated, β only",U2OS-ERβ cells [3]; [9],52 genes
same,"genes Activated, β only, relative percentage",U2OS-ERβ cells [3]; [9],(27.4%)
same,"genes Repressed, β only",U2OS-ERβ cells [3]; [9],101 genes
same,"genes Repressed, β only, relative percentage",U2OS-ERβ cells [3]; [9],(53.2%)
same,"common genes with opposite expression patterns (*), relative percentage",[6]; [10],(8.9%)
same,common genes with opposite expression patterns in ERα compared to ERβ cells (*),[6]; [10],17* genes
same,"Mean signal log ratio ± S.E., NKG2C (β)",U2OS-ERβ cells [7],−5.20 ± 0.08
same,"Fold-change by real-time PCR, NKG2C (β)",U2OS-ERβ cells [8],0.36 fold
same,blockade of ERE-tk-Luc activation through ERβ,human ERβ,blocked
CC/C(=C(\c1ccccc1)c1ccc(OCCN(C)C)cc1)c1ccccc1 [tamoxifen],"genes Activated, α only",U2OS-ERα cells [1]; [9],21 genes
same,"genes Repressed, α only",U2OS-ERα cells [1]; [9],38 genes
same,"genes Activated, α + β",[2]; 18 h,1 genes
same,"genes Repressed, α + β",[2]; 18 h,9 genes
same,"genes Activated, β only",U2OS-ERβ cells [3]; [9],26 genes
same,"genes Repressed, β only",U2OS-ERβ cells [3]; [9],129 genes
same,share of genes regulated by tamoxifen also regulated by raloxifene,[6],27%
same,common genes with opposite expression patterns in ERα compared to ERβ cells (*),[6]; [10],12* genes
